In ChEMBL document CHEMBL3808371, “Design, synthesis and biological evaluation of diaziridinyl quinone isoxazole hybrids” (Eur J Med Chem, 2016):
Values after ≈ are worked out from the molar mass of the structure shown.

How the values were obtained:
A549 = assay: Cytotoxicity against human A549 cells after 72 hrs by XTT assay; type: functional, cell-based; conditions: A549, 72 h
[1] = Cytotoxicity against human PC3 cells after 72 hrs by XTT assay; type: functional, cell-based; conditions: PC-3, 72 h
Bacillus subtilis [2] = assay: Antimicrobial activity against Bacillus subtilis MTCC 121 after 24 hrs by well diffusion method; type: functional; conditions: MTCC 121, 24 h
Escherichia coli = assay: Antimicrobial activity against Escherichia coli MTCC 739 after 24 hrs by well diffusion method; type: functional; conditions: MTCC 739, 24 h
Pseudomonas aeruginosa = assay: Antimicrobial activity against Pseudomonas aeruginosa MTCC 2453 after 24 hrs by well diffusion method; type: functional; conditions: MTCC 2453, 24 h
Bacillus subtilis [3] = assay: Antibiofilm activity against Bacillus subtilis MTCC 121 after 24 hrs by crystal violet staining based assay; type: functional, organism-based; conditions: MTCC 121, 24 h
Micrococcus luteus [4] = assay: Bactericidal activity against Micrococcus luteus MTCC 2470 after 24 hrs by serial dilution method; type: functional; conditions: MTCC 2470, 24 h
Candida albicans = assay: Antimicrobial activity against Candida albicans MTCC 3017 after 24 hrs by well diffusion method; type: functional; conditions: MTCC 3017, 24 h
Raoultella planticola [5] = assay: Bactericidal activity against Klebsiella planticola MTCC 530 after 24 hrs by serial dilution method; type: functional; conditions: MTCC 530, 24 h
Staphylococcus aureus [6] = assay: Antimicrobial activity against Staphylococcus aureus MLS16 MTCC 2940 after 24 hrs by well diffusion method; type: functional; conditions: MLS16 MTCC 2940, 24 h
Staphylococcus aureus [7] = assay: Antimicrobial activity against Staphylococcus aureus MTCC 96 after 24 hrs by well diffusion method; type: functional; conditions: MTCC 96, 24 h
Micrococcus luteus [8] = assay: Antimicrobial activity against Micrococcus luteus MTCC 2470 after 24 hrs by well diffusion method; type: functional; conditions: MTCC 2470, 24 h
Micrococcus luteus [9] = assay: Antibiofilm activity against Micrococcus luteus MTCC 2470 after 24 hrs by crystal violet staining based assay; type: functional, organism-based; conditions: MTCC 2470, 24 h
Bacillus subtilis [10] = assay: Bactericidal activity against Bacillus subtilis MTCC 121 after 24 hrs by serial dilution method; type: functional; conditions: MTCC 121, 24 h
Staphylococcus aureus [11] = assay: Bactericidal activity against Staphylococcus aureus MTCC 96 after 24 hrs by serial dilution method; type: functional; conditions: MTCC 96, 24 h
Staphylococcus aureus [12] = assay: Bactericidal activity against Staphylococcus aureus MLS16 MTCC 2940 after 24 hrs by serial dilution method; type: functional; conditions: MLS16 MTCC 2940, 24 h
Raoultella planticola [13] = assay: Antimicrobial activity against Klebsiella planticola MTCC 530 after 24 hrs by well diffusion method; type: functional; conditions: MTCC 530, 24 h
Raoultella planticola [14] = assay: Antibiofilm activity against Klebsiella planticola MTCC 530 after 24 hrs by crystal violet staining based assay; type: functional, organism-based; conditions: MTCC 530, 24 h
Staphylococcus aureus [15] = assay: Antibiofilm activity against Staphylococcus aureus MTCC 96 after 24 hrs by crystal violet staining based assay; type: functional, organism-based; conditions: MTCC 96, 24 h
Staphylococcus aureus [16] = assay: Antibiofilm activity against Staphylococcus aureus MLS16 MTCC 2940 after 24 hrs by crystal violet staining based assay; type: functional, organism-based; conditions: MLS16 MTCC 2940, 24 h

SMILES: O=C1C=CC(=O)C(c2cc(-c3ccc(C(=O)N4CCCCC4)s3)on2)=C1
- IC50 (A549): > 30 µM
- IC50 [1]: > 30 µM

SMILES: COc1ccc(OC)c(-c2cc(-c3ccc(C(=O)N4CCOCC4)s3)on2)c1
- IC50 (A549): > 30 µM
- IC50 [1]: > 30 µM

SMILES: CCCN(C)C(=O)c1ccc(-c2cc(-c3cc(OC)ccc3OC)no2)s1
- IC50 (A549): > 30 µM
- IC50 [1]: > 30 µM

SMILES: COc1ccc(OC)c(-c2cc(-c3ccc(C(=O)N(C)C)s3)on2)c1
- IC50 (A549): > 30 µM
- IC50 [1]: > 30 µM

SMILES: O=C1C=C(N2CC2)C(=O)C(c2cc(-c3ccc(C(=O)N4CCC(C(F)(F)F)CC4)s3)on2)=C1N1CC1
- IC50 (A549): 3.7 µM
- MIC (Bacillus subtilis [2]): 3.9 µg/mL (≈ 7.52 µM)
- MIC (Escherichia coli): > 125 µg/mL
- MIC (Pseudomonas aeruginosa): > 125 µg/mL
- IC50 (Bacillus subtilis [3]): 2.1 µM
- MBC (Micrococcus luteus [4]): 62.5 µg/mL (≈ 121 µM)
- IC50 [1]: 2 µM
- MIC (Candida albicans): 31.2 µg/mL (≈ 60.2 µM)
- MBC (Raoultella planticola [5]): > 125 µg/mL
- MIC (Staphylococcus aureus [6]): > 125 µg/mL
- MIC (Staphylococcus aureus [7]): > 125 µg/mL
- MIC (Micrococcus luteus [8]): 31.2 µg/mL (≈ 60.2 µM)
- IC50 (Micrococcus luteus [9]): 16.2 µM
- MBC (Bacillus subtilis [10]): 7.8 µg/mL (≈ 15 µM)
- MBC (Staphylococcus aureus [11]): > 125 µg/mL
- MBC (Staphylococcus aureus [12]): > 125 µg/mL
- MIC (Raoultella planticola [13]): > 125 µg/mL

SMILES: O=C1C=CC(=O)C(c2cc(-c3ccc(C(=O)NCC4CC4)s3)on2)=C1
- IC50 (A549): > 30 µM
- IC50 [1]: > 30 µM

SMILES: O=C1C=CC(=O)C(c2cc(-c3ccc(C(=O)N4CCCC4)s3)on2)=C1
- IC50 (A549): > 30 µM
- IC50 [1]: < 30 µM

SMILES: COc1ccc(OC)c(-c2cc(-c3ccc(C(=O)N4CCCCC4)s3)on2)c1
- IC50 (A549): > 30 µM
- IC50 [1]: > 30 µM

SMILES: CN(C)C(=O)c1ccc(-c2cc(C3=CC(=O)C=CC3=O)no2)s1
- IC50 (A549): > 30 µM
- IC50 [1]: 7.2 µM

SMILES: CCN(CC)C(=O)c1ccc(-c2cc(C3=CC(=O)C=CC3=O)no2)s1
- IC50 (A549): 10 µM
- IC50 [1]: 8.9 µM

SMILES: CCN(CC)C(=O)c1ccc(-c2cc(C3=C(N4CC4)C(=O)C=C(N4CC4)C3=O)no2)s1
- IC50 (A549): 0.9 µM
- MIC (Bacillus subtilis [2]): 7.8 µg/mL (≈ 17.8 µM)
- MIC (Escherichia coli): > 125 µg/mL
- MIC (Pseudomonas aeruginosa): > 125 µg/mL
- MBC (Micrococcus luteus [4]): 62.5 µg/mL (≈ 143 µM)
- IC50 [1]: 0.5 µM
- MIC (Candida albicans): 15.6 µg/mL (≈ 35.6 µM)
- MBC (Raoultella planticola [5]): 62.5 µg/mL (≈ 143 µM)
- MIC (Staphylococcus aureus [6]): 7.8 µg/mL (≈ 17.8 µM)
- MIC (Staphylococcus aureus [7]): 7.8 µg/mL (≈ 17.8 µM)
- MIC (Micrococcus luteus [8]): 15.6 µg/mL (≈ 35.6 µM)
- MBC (Bacillus subtilis [10]): 31.2 µg/mL (≈ 71.2 µM)
- MBC (Staphylococcus aureus [11]): 15.6 µg/mL (≈ 35.6 µM)
- MBC (Staphylococcus aureus [12]): 31.2 µg/mL (≈ 71.2 µM)
- MIC (Raoultella planticola [13]): 15.6 µg/mL (≈ 35.6 µM)

SMILES: COc1ccc(CN(C)C(=O)c2ccc(-c3cc(-c4cc(OC)ccc4OC)no3)s2)cc1
- IC50 (A549): > 30 µM
- IC50 [1]: > 30 µM

SMILES: CN(Cc1ccccc1)C(=O)c1ccc(-c2cc(C3=CC(=O)C=CC3=O)no2)s1
- IC50 (A549): > 30 µM
- IC50 [1]: 11 µM

SMILES: CN(C)C(=O)c1ccc(-c2cc(C3=C(N4CC4)C(=O)C=C(N4CC4)C3=O)no2)s1
- IC50 (Raoultella planticola [14]): 6.1 µM
- IC50 (A549): 1.5 µM
- MIC (Bacillus subtilis [2]): 3.9 µg/mL (≈ 9.5 µM)
- MIC (Escherichia coli): > 125 µg/mL
- MIC (Pseudomonas aeruginosa): > 125 µg/mL
- IC50 (Bacillus subtilis [3]): 2.2 µM
- MBC (Micrococcus luteus [4]): 125 µg/mL (≈ 305 µM)
- IC50 [1]: > 30 µM
- MIC (Candida albicans): 15.6 µg/mL (≈ 38 µM)
- MBC (Raoultella planticola [5]): 31.2 µg/mL (≈ 76 µM)
- MIC (Staphylococcus aureus [6]): 15.6 µg/mL (≈ 38 µM)
- MIC (Staphylococcus aureus [7]): 15.6 µg/mL (≈ 38 µM)
- MIC (Micrococcus luteus [8]): 62.5 µg/mL (≈ 152 µM)
- IC50 (Staphylococcus aureus [15]): 9.8 µM
- IC50 (Micrococcus luteus [9]): 38.9 µM
- MBC (Bacillus subtilis [10]): 7.8 µg/mL (≈ 19 µM)
- MBC (Staphylococcus aureus [11]): 31.2 µg/mL (≈ 76 µM)
- IC50 (Staphylococcus aureus [16]): 10.1 µM
- MBC (Staphylococcus aureus [12]): 31.2 µg/mL (≈ 76 µM)
- MIC (Raoultella planticola [13]): 7.8 µg/mL (≈ 19 µM)
